This is an account of results in patent US5344841A, “Bis-(hydroxylakylamino)-anthraquinone inhibitors of protein kinase C” (Sphinx Pharmaceuticals Corporation, priority 1992, dated 1994).

The target of one test is protein kinase C. Nature of the test: Protein kinase C (PKC) inhibition assay (histone H1 phosphorylation). Format: biochemical. Conditions: rat brain PKC, histone H1 substrate. Here is the method: The protein kinase C (PKC) assay is designed to duplicated the in vivo conditions required for protein kinase C function. Therefore, pH, salt and cofactor concentrations are similar to physiologic levels. Histone H1 (lysine rich) is used in the assay as the phosphorylation acceptor protein because it is readily available and serves as a good substrate for protein kinase C. The enzyme is prepared from rat brain and is purified to apparent homogeneity as determined by a single band on silver stained SDS-polyacrylamide. Studies on the mechanism of regulation of protein kinase C by phospholipids, DAG and Ca^+2 have been hampered by the physical properties of the lipid cofactors. In the screening assay, phosphatidylserine (PS) and DAG are cosonicated to form unilamellar and multilamellar vesicles. The concentration of lipids in the assay are suboptimal to maximize the detection potential of the assay for inhibitors. […] The assay is started with the addition of enzyme and stopped after 10 min by the addition of 25% trichloroacetic acid (TCA) and 1.0 mg/ml bovine serum albumin (BSA). The radioactive histone product is retained and washed on glass fiber filters that allow the unreacted ^32 P-ATP to pass through. The amount of phosphorylation is determined by the radioactivity measured in a scintillation counter. Controls are included in every assay to measure background activity in the absence of enzyme, activity in the absence of lipids and the maximum enzyme activity with saturating levels of the activator lipids.

The next test relates to human neutrophils. Nature of the test: Neutrophil superoxide anion (O2-) release assay, PMA-stimulated. Format: cell-based. The following applies: PMA-stimulated O2- production. How it is done:
Neutrophils were isolated form whole blood collected from human volunteers. All reagent materials were obtained from Sigma Chemical Company with the exception of isotonic saline (Travenol Lab., Inc. Deerfield, Ill.) and lymphocyte separation medium (Organon Teknika, Durham, N.C.). Whole blood was drawn and mixed with sodium heparin (final conc. 10 units/ml) to prevent clotting. An equal volume of dextran (3.0%) in isotonic saline was added, mixed, and allowed to settle for 30 min to bind red blood cells (RBC). The supernatant was removed, underlayered with lymphocyte separation medium and centrifuged for 40 min at 400 xg in a centrifuge (Beckman GPR, Norcross, Ga.). […] The washed pellet was resuspended in 10 ml HBSS and placed on ice before counting on a hemacytometer. The neutrophil cell concentration is adjusted to 2×10^6 cells/ml with HBSS before adding 0.8 ml cells to 12×75 mm polypropylene test tubes (Fisher Scientific). Test agents are diluted to determine dose response and added at 10×final concentration at a volume of 0.1 ml/tube in duplicate. […] Tubes are then centrifuged at 900 xg for 10 min, 0.5 ml supernatant is removed and added to 0.5 ml H2 O in a microcuvette. Optical density (OD) of cytochrome c is read in a spectrophotometer (Shimadzu) at 550 nm. The ΔOD of cytochrome c is obtained between PMA-stimulated and non-stimulated tubes, and the dose responses of the test agents are compared to the positive controls (which contain HBSS in place of test agents). PMA stimulates O2^- production which reduces cytochrome c. Reducing cytochrome c increases its absorbance, and the change in OD of cytochrome c is proportional to the amount of O2^- produced by PMA stimulation. Inhibition of the O2^- burst by test compounds of the invention is seen as a reduction in the change in optical density. Inhibition is expressed as IC50 μM and is the amount of test compound that will inhibit fifty percent of the PMA-stimulated respiratory outburst, i.e. O2^- production.

The test system of test [1] is MCF-7 human breast tumor cell line. Nature of the test: Human tumor growth inhibition, 3H-thymidine incorporation, MCF-7. Format: cell-based. The following applies: Homo sapiens, MCF7, 3 h, read-out: IC50 MCF-7. From the text: (§1) MCF-7 a human breast tumor cell line, and MCF-7/ADR an adriamycin resistant line of MCF-7 cells were obtained from the National Cancer Institute, Frederick, Md. NHEK a human keratinocyte cell line was obtained from Clonetic Corp., San Diego, Calif. 8226 a human myeloma cell line, 8226/MT a Mitoxantrone resistant line of 8226 cells, and 8226 ADR an adriamycin resistant line of 8226 cells were obtained from Dr. Bill Dalton, Arizona Cancer Center, Tuscon, Ariz.
(§2) Human tumor cells are trypsinized (0.05% trypsin, GIBCO), counted with a hemacytometer and seeded at a concentration of 10,000 cells/well in a 96 well microtiter plate. After allowing cells to attach to the surface overnight, the culture medium is aspirated and replaced with 100 μl of fresh medium. Test agents are diluted to determine dose response at 2× final concentration and added in quadruplicate at 100 μl/well to bring the total volume of each well to 200 μl. The microtiter plate is then incubated at 37° C. 5% CO2 overnight (18-24 hrs) before ^3 H-thymidine is added at a concentration of 0.5 μCi/well in 50 μl culture medium. The plate is incubated again for 4 hrs under the same conditions as above. Supernatant is then aspirated and 50 μl trypsin (0.05%, GIBCO) is added to each well. Cells are checked microscopically to determine detachment from surfaces, and plates are then harvested with a cell harvester (PHD, Cambridge Technology, Inc.) Filter papers corresponding to wells are placed in scintillation vials and counted to determine the amount of ^3 H-thymidine incorporated by the cells. Test agent response is compared to a positive control of cell wells with culture media only to determine the IC50. IC50 is the concentration of test compound required to inhibit fifty percent of the incorporation of ^3 H-thymidine into proliferating cells not exposed to test agent. Uptake of ^3 H-thymidine is a standard test for measuring the metabolism of cells. Cells which are actively proliferating take up ^3 H-thymidine, whereas cells that are not proliferating take up ^3 H-thymidine at much slower rates or not at all. Test agents that inhibit the uptake of ^3 H-thymidine thus slow the growth of cells.

The subject of test [2] is MCF-7/ADR adriamycin resistant line of MCF-7 cells. Nature of the test: Human tumor growth inhibition, 3H-thymidine incorporation, MCF-7/ADR. Format: cell-based. The following applies: MCF-7/ADR vs MCF-7.
Excerpt: as §1, §2

For test [3], the system named is 8226 human myeloma cell line. Nature of the test: Human tumor growth inhibition, 3H-thymidine incorporation, 8226. Format: cell-based. The following applies: read-out: IC50 8226.
Excerpt: as §1, §2

Test [4] deals with 8226/ADR adriamycin resistant line of 8226 cells. Nature of the test: Human tumor growth inhibition, 3H-thymidine incorporation, 8226/ADR. Format: cell-based. The following applies: 8226/ADR vs 8226.
Excerpt: as §1, §2

The subject of test [5] is MCF-7/ADR adriamycin resistant line of MCF-7 cells. Nature of the test: Human tumor growth inhibition, 3H-thymidine incorporation, MCF-7/ADR. Format: cell-based. The following applies: NCI/ADR-RES, 3H-thymidine uptake.
Test [6] concerns 8226/ADR adriamycin resistant line of 8226 cells. Nature of the test: Human tumor growth inhibition, 3H-thymidine incorporation, 8226/ADR. Format: cell-based. The following applies: 3H-thymidine uptake.
Test [7] relates to 8226/MT Mitoxantrone resistant line of 8226 cells. Nature of the test: Human tumor growth inhibition, 3H-thymidine incorporation, 8226/MT. Conditions: for Resistance Ratio (8226/MT): 8226/MT vs 8226; for IC50: Homo sapiens, read-out: IC50 8226/MT.

Structures can show the parent of a compound that is named as a salt. Where two headings read alike, the source gives them in different places.

With `CCN(CC)CC(O)CNc1ccc(NCC(O)CCl)c2c1C(=O)c1ccccc1C2=O` (stereo not drawn) [1a-1 (HCl), 1-(3-Diethylamino-2-Hydroxypropylamino)-4-(3-Chloro-2-Hydroxypropylamino)-9, 10-Anthracenedione Hydrochloride Salt], the IC50 on protein kinase C (Hydrochloride Salt) is 230 µM; on protein kinase C (listed as 1a-1 (HCl salt), Hydrochloride Salt), 230 µM; with human neutrophils (Hydrochloride Salt), over 12.5 µM.
Regarding `CCN(CC)CC(O)CNc1ccc(NCC(O)CCl)c2c1C(=O)c1ccccc1C2=O` (stereo not drawn) [1a-1 (base), 1-(3-diethylamino-2-hydroxypropylamino)-4-(chloro-2-hydroxypropylamino)-9,10 anthracenedione], the IC50 against protein kinase C is 180 µM; in the test with human neutrophils (Homo sapiens, Neutrophil) it was over 6.25 µM.
Take `CCCNCC(O)CNc1ccc(NCC(O)CCl)c2c1C(=O)c1ccccc1C2=O` (stereo not drawn) [1a-2 (HCl)]: the IC50 against protein kinase C amounted to 160 µM.
Still for that read-out and setting: for `O=C1c2ccccc2C(=O)c2c(NCC(O)CNCc3ccccc3)ccc(NCC(O)CCl)c21` (stereo not drawn) [1a-3 (HCl)] the value was 110 µM; for `CCN(CC)CC(O)CNc1ccc(NCC(O)CO)c2c1C(=O)c1ccccc1C2=O` (stereo not drawn) [1c-1 (HCl), 1-(3-Diethyl-2-Hydroxypropylamino)-4-(2,3-Dihydroxypropylamino)-9, 10-Anthracenedione Hydrochloride Salt], 180 µM.
Regarding `COc1cccc2c1C(=O)c1c(O)c3c(c(O)c1C2=O)C[C@@](O)(C(=O)CO)C[C@@H]3O[C@H]1C[C@H](N)[C@H](O)[C@H](C)O1` [ADR, reference compound], the IC50 in [1] was 0.02 µM; in [3], 0.05 µM; in test [5] it was 4 µM; in [6] it was 0.57 µM; in test [7], 0.05 µM. In test [2], the “Resistance Ratio (IC50 MCF-7/ADR to IC50 MCF-7)” value was determined as 200. For the same compound, the “Resistance Ratio (8226/ADR)” value in [4] is given as 11.4. Besides, the “Resistance Ratio (8226/MT)” value in [7] worked out at 1.
As to `CCCNCC(O)CNc1ccc(NCC(O)CCl)c2c1C(=O)c1ccccc1C2=O` (stereo not drawn) [Compound 1a-2], the IC50 in test [1] (3H-thymidine uptake) was found to be 7.4 µM; in [3] (3H-thymidine uptake), 10.2 µM; in test [5], 16 µM; in [6], 14.1 µM. Further, the “Resistance Ratio (IC50 MCF-7/ADR to IC50 MCF-7)” value in [2] is on record as 2.2. In addition, the “Resistance Ratio (8226/ADR)” value in test [4] is reported as 1.38.
For `O=C1c2ccccc2C(=O)c2c(NCC(O)CNCc3ccccc3)ccc(NCC(O)CCl)c21` (stereo not drawn) [Compound 1a-3], the IC50 in test [1] (3H-thymidine uptake) stood at 7.4 µM; in [3] (3H-thymidine uptake), 15 µM; in test [5] it was 14.1 µM; in test [6], 16.3 µM. For the same compound, in test [2], the “Resistance Ratio (IC50 MCF-7/ADR to IC50 MCF-7)” value was determined as 1.9. Also, the “Resistance Ratio (8226/ADR)” value in [4] amounted to 1.08.
On to `CCN(CC)CC(O)CNc1ccc(NCC(O)CO)c2c1C(=O)c1ccccc1C2=O` (stereo not drawn) [Compound 1c-1], for which the results for the IC50 in test [3] (3H-thymidine uptake) and in test [6] were 18 µM and 25 µM, respectively. In addition, the “Resistance Ratio (8226/ADR)” value in [4] is given as 1.4.
In the case of `O=C1c2c(O)ccc(O)c2C(=O)c2c(NCCNCCO)ccc(NCCNCCO)c21` [MT, reference compound], the IC50 in test [1] (3H-thymidine uptake) was found to be 0.005 µM; in test [3] (3H-thymidine uptake), 0.03 µM; in [5], 4 µM; in test [6], 0.18 µM; in test [7], 0.105 µM. For the same compound, the “Resistance Ratio (IC50 MCF-7/ADR to IC50 MCF-7)” value in [2] was determined as 800. For the same compound, the “Resistance Ratio (8226/ADR)” value in test [4] was determined as 6. Besides, in [7], the “Resistance Ratio (8226/MT)” value is listed as 3.5.
